Experiments:
[1] = test system: calcium-activated chloride channel (CaCC); assay: YFP fluorescence plate reader iodide influx assay in HT-29 cells (ATP/carbachol); assay type: cell-based, human; conditions: semi-quantitative
Method: Screening was performed using a customized screening system (BECKMAN COULTER, Inc., Indianapolis, Ind.) consisting of the SAGIAN Core system integrated with SAMI software, and equipped with an ORCA arm for labware transport, a 96-channel head BIOMEK FX, CO2 incubator, plate washer, bar code reader, delidding station, and two FLUOstar OPTIMA fluorescence plate readers (BMG Labtechnologies, Durham, N.C.), each equipped with syringe pumps and custom excitation/emission filters (500/544 nm; CHROMA, Brattleboro, Vt.).
HT-29 cells expressing YFP-H148Q/I152L were plated in 96-well plates at 70% confluence. Plates were incubated overnight at 37° C., 5% CO2 and then the growth medium was replaced with fresh growth medium. […] YFP fluorescence was measured 1 s before and for 30 s after addition of a PBS-iodide solution (PBS that has 100 mM chloride replaced by iodide) containing carbachol and ATP (100 μM each). Each 96-well plate contained ‘positive’ controls (DMSO vehicle without agonists or test compounds) and ‘negative’ controls (DMSO vehicle with agonists but without test compounds). In some experiments solutions included (individually or in combination): carbachol, ATP, or histamine (at 50, 100, 150 or 200 μM), calcimycin (10 μM), thapsigargin (2 μM) and CFTRinh-172 (20 μM).
Iodide influx (d[I^−]/dt at t=0) was computed from fluorescence time course data by single exponential regression, as described (Ma et al., J. Clin. Invest. 110:1651-8 (2002)). Percentage inhibition was computed as: percentage inhibition=100×(Slopenegative control−Slopetest compound)/(Slopenegative control−Slopepositive control).

[2] = Aqueous solubility in PBS by optical absorbance of a saturated solution; assay type: physicochemical; conditions: aqueous buffer, thermodynamic from solid
Source text: The high aqueous solubility is a consequence of their polarity and negative charge at physiological pH.

[3] = test system: agonist-induced [Ca2+]i elevation; assay: Cytoplasmic calcium measurement by Fura-2 fluorescence in HT-29 cells; assay type: cell-based, human; conditions: pretreatment at high concentration prior to agonist
Method: [Ca^2+]i was measured in confluent monolayers of HT-29 cells after loading with Fura-2 (2 μM Fura-2-AM, 30 min, 37° C.). Labeled cells were mounted in a perfusion chamber on the stage of an inverted epifluorescence microscope. Cells were superfused with (in mM): 140 NaCl, 5 KCl, 1 MgCl2, 1 CaCl2, 10 D-glucose, and 10 HEPES (pH 7.4), initially without and then with ATP/carbachol. Test compounds were present in some experiments for 10 min prior to agonist addition. Fura-2 fluorescence was recorded at excitation wavelengths of 340 nm and 380 nm using standard procedures

CaMKII phosphorylation = CaMKII phosphorylation immunoblot in HT-29 cells; assay type: cell-based; conditions: 30 μM pretreatment, ATP/carbachol
Source text: CaMKII Regulation of CaCC activation by CaMKII occurs in a cell type-dependent manner (Hartzell et al., Annu. Rev. Physiol. 67:719-58 (2005)). CaMKII has been reported to regulate calcium-activated chloride current in HT-29 and T84 cells (Worrell et al., Am. J. Physiol. 260:C877-82 (1991); Morris et al., Am. J. Physiol. 264:C977-85 (1993); Chan et al., J. Biol. Chem. 269:32464-8 (1994); Braun et al., J. Physiol. 488:37-55 (1995)). To determine whether the CaCC inhibitors interfered with ATP/carbachol-induced CaMKII activation, CaMKII phosphorylation in HT-29 cells was measured by immunoblot analysis. Calcium/calmodulin-dependent protein kinase II (CaMKII) was activated by 2 min treatment of HT-29 cells with ATP/carbachol (each 100 μM). Cells were then lysed with cell lysis buffer (20 mM Tris-HCl (pH 7.4), 1% Triton X-100, 150 mM NaCl, 2 mM EDTA, 50 mM α-glycerolphosphate, 1 mM Na3VO4, 1 mM DTT, and complete protease inhibitor mixture (Roche Applied Science)). Cell debris was removed by centrifugation, and proteins in the supernatant were resolved by SDS-PAGE and immunoblotted using standard procedures (transfer to PDVF membrane, 1 h blocking in 5% nonfat dry milk, primary/secondary antibody incubations, enhanced chemiluminescence detection). Rabbit polyclonal antibodies for anti-phospho-CaMKII (Thr286) and β-actin were purchased from Cell Signaling Technology (Danvers, Mass.).

[4] = test system: calcium-activated chloride channel (CaCC); assay: Whole-cell patch-clamp of calcium-dependent chloride current in HT-29 cells; assay type: cell-based, human; conditions: for calcium-dependent chloride current reduced: 1 μM ionomycin, HT-29; for ionomycin-induced chloride currents, symmetric NMDG-Cl solutions: whole-cell, pretreatment
Method: Whole cell recordings were accomplished with HT-29 cells at room temperature. The pipette solution contained (in mM): 30 CsCl, 100 Cs-aspartate, 1 MgCl2, 0.5 EGTA, 2 Tris-ATP, and 10 HEPES (pH 7.2 with CsOH), and the bath solution contained (in mM) 140 N-methyl-D-glucamine chloride (NMDG-Cl), 1 CaCl2, 1 MgCl2, 10 glucose, and 10 HEPES (pH 7.2). In one set of studies, symmetric NMDG-Cl solutions contained 140 mM NMDG-Cl, 1 mM MgCl2, 0.5 mM EGTA, 2 mM Tris-ATP, and 10 mM HEPES, pH 7.2. Pipettes were pulled from borosilicate glass and had resistances of 3-5 MΩ after fire polishing. Seal resistances were typically between 3-10 GΩ. After establishing the whole cell configuration, CaCCs were activated by 1 μM ionomycin. Whole cell currents were elicited by applying hyperpolarizing and depolarizing voltage pulses from a holding potential of 0 mV to potentials between −120 mV and +120 mV in steps of 20 mV. Currents were filtered at 5 kHz, and digitized and analyzed using an AxoScope 10.0 system and a Digidata 1440A […] (Molecular Devices, Sunnyvale, Calif.). Mean currents were expressed as current densities (picoampere per picofarad (pA/pF)).

CaCC in T84 cells = assay: Short-circuit current (chloride secretion) in T84 cell monolayers; assay type: cell-based, human
Method: ATP/carbachol were used to induce calcium-dependent chloride secretion in well-differentiated T84 cell monolayers. T84 cells were seeded at a density of 10^5 cm^−2 on permeable supports (Snapwell, 1.12 cm^2 surface area) and grown until confluent. Supports containing confluent cell monolayers were mounted in Snapwell diffusion chambers. Cells were bathed for a 30 min stabilization period in HCO3^−-buffered solution containing (mmol/L): 120 NaCl, 5 KCl, 1 MgCl2, 1 CaCl2, 10 D-glucose, 5 HEPES, and 25 NaHCO3 (pH 7.4), aerated with 95% O2/5% CO2 at 37° C. Monolayers were voltage-clamped at 0 mV (EVC4000 Multi-Channel V/I Clamp, World Precision Instruments), and short-circuit current (Isc) was recorded continuously with agonists/inhibitors added at specified times.

human wildtype CFTR = target: T1, human wildtype CFTR (Homo sapiens, UniProt P13569); assay: Iodide influx in FRT cells expressing human wildtype CFTR; assay type: cell-based; conditions: 20 μM
T1 construct: expressed in transfected cells; host or cells: Fisher rat thyroid (FRT) cells
Method: Cystic Fibrosis Transmembrane Conductance Regulator (CFTR) Experiments were performed to determine whether the compounds affected CFTR because CFTR is a major intestinal chloride channel and evidence exists for cross-talk between cAMP and calcium signaling in intestinal cell chloride secretion (Schultheiss et al., Eur. J. Pharmacol. 546:161-70 (2006); Takahashi et al., J. Med. Microbiol. 49:801-10 (2000); Chao et al., EMBO J. 13:1065-72 (1994)). As described (Ma et al., J. Clin. Invest. 110:1651-8 (2002)), FRT cells expressing human wildtype CFTR and YFP-H148Q/I152L, at 100% confluence, were washed 3 times with PBS, leaving 60 μL. CFTR was activated by a cocktail containing forskolin (20 μM), genistein (50 μM), and isobutylmethylxanthine (100 μM). Iodide influx as described in Example 1 was measured at 10 min after addition of test compounds by determining YFP fluorescence for 2 s before and 20 s after addition of 165 μl of PBS-iodide.

T1 sequence (P13569 whole entry): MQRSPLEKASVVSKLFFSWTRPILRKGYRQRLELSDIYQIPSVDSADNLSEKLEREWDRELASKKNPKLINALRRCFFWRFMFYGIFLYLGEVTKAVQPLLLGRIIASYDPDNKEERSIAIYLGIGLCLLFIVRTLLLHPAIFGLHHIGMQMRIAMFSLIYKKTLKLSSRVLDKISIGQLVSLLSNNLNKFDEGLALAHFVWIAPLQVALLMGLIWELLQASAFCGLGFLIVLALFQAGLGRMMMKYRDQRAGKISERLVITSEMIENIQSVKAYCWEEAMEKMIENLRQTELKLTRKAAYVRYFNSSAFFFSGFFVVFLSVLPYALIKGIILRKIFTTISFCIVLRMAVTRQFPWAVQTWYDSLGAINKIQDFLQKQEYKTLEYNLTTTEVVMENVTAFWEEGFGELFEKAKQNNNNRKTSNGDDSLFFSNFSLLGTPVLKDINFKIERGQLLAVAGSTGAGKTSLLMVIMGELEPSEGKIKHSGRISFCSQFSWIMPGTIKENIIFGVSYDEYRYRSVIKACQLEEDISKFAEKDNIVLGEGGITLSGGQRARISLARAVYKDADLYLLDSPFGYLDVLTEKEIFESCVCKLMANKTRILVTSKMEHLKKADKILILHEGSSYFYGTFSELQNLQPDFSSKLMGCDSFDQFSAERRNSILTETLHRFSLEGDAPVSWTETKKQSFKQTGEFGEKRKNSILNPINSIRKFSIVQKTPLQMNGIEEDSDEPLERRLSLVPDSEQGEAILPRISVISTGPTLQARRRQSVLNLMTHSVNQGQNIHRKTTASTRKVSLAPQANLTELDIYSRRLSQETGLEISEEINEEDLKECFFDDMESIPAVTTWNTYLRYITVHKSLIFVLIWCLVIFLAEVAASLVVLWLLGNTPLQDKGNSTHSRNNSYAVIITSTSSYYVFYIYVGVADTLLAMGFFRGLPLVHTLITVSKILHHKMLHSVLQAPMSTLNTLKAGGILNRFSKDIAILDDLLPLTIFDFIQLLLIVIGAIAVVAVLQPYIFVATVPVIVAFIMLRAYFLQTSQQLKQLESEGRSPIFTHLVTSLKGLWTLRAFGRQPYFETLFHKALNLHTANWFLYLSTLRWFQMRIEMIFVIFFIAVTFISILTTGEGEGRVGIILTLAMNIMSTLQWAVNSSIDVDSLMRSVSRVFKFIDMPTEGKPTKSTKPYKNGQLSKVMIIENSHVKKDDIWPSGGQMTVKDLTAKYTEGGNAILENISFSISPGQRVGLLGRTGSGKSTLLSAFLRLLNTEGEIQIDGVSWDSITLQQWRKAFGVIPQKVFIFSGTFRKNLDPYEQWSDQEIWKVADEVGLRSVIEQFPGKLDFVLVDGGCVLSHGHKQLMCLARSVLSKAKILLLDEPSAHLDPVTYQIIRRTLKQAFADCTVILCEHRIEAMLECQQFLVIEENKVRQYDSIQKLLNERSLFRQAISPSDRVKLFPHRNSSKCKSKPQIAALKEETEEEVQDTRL

In the case of `CC(C)(C)C1CCc2c(sc(NC(=O)c3ccco3)c2C(=O)O)C1` (stereo not drawn) [CaCCinh-A01, 6-tert-butyl-2-(furan-2-carboxamido)-4,5,6,7-tetrahydrobenzo[b]thiophene-3-carboxylic acid], the “% inhibition at 25 μM” value ([1]; class A aminothiophenes) is reported as 100%, the solubility [2] is reported as greater than 500 µM and the “ATP or carbachol-induced [Ca2+]i elevations” value [3] is reported as “did not significantly reduce”. The “agonist-induced CaMKII phosphorylation” value (CaMKII phosphorylation) was “did not significantly affect”, the “calcium-dependent chloride current reduced” value ([4]; 0.1 μM compound) was 38±14% and the “calcium-dependent chloride current reduced” value ([4]; 1 μM compound) was 66±10%. The “calcium-dependent chloride current reduced” value ([4]; 10 μM compound) was 91±1%, the “ionomycin-induced chloride currents, symmetric NMDG-Cl solutions” value [4] was “reduced ionomycin-induced currents” and the “ATP-induced short-circuit current reduced” value (CaCC in T84 cells; 10 μM compound) was 38±7%. The “ATP-induced short-circuit current reduced” value (CaCC in T84 cells; 30 μM compound) was 78±3%.

For `O=C(O)c1ccc(C=C2SC(=S)N(c3cccc(C(F)(F)F)c3)C2=O)cc1` [CFTRinh-172, 3-[(3-trifluoromethyl)phenyl]-5-[(4-carboxyphenyl)methylene]-2-thioxo-4-thiazolidinone, reference compound], the “CFTR inhibition (iodide influx), positive control” value (human wildtype CFTR) was “inhibition”.

For “2-hydroxy-5-(4-p-tolylthiazol-2-ylamino)benzoic acid [CaCCinh-B01]”, the “% inhibition at 25 μM” value ([1]; class B aminothiazoles) was 100%, the “ATP or carbachol-induced [Ca2+]i elevations” value [3] was “did not significantly reduce” and the “agonist-induced CaMKII phosphorylation” value (CaMKII phosphorylation) was “did not significantly affect”. The “calcium-dependent chloride current reduced” value ([4]; 0.1 μM compound) was 11±7%, the “calcium-dependent chloride current reduced” value ([4]; 1 μM compound) was 34±12% and the “calcium-dependent chloride current reduced” value ([4]; 10 μM compound) was 77±4%. The “ionomycin-induced chloride currents, symmetric NMDG-Cl solutions” value [4] was “reduced ionomycin-induced currents”, the “ATP-induced short-circuit current reduced” value (CaCC in T84 cells; 10 μM compound) was 29±11% and the “ATP-induced short-circuit current reduced” value (CaCC in T84 cells; 30 μM compound) was 64±3%.

For `CCOC(=O)c1c(NC(=O)C2CCCCC2C(=O)O)sc2c1CCC(C(C)(C)C)C2` (stereo not drawn) [CaCCinh-A08, 2-(6-tert-butyl-3-(ethoxycarbonyl)-4,5,6,7-tetrahydrobenzo[b]thiophen-2-ylcarbamoyl)cyclohexanecarboxylic acid], the “% inhibition at 25 μM” value ([1]; class A aminothiophenes) was 80%.
